From ChEMBL document CHEMBL1139944, “Synthesis and evaluation of new difluoromethyl azoles as antileishmanial agents” (Eur J Med Chem, 2007) come the findings set out here.

The experiment concerns Leishmania amazonensis. Description: Antileishmanial activity against Leishmania amazonensis promastigote by MTT method. The class given is functional, organism-based.
In turn, `O=Cc1cn(-c2cccc(Cl)c2)nn1` had an IC50 of 2.8 µM. As for `FC(F)c1cn(-c2cccc(Cl)c2)nn1`, the figure is 2.6 µM. Turning to `Cc1ncc(C(F)F)n1-c1ccc(Cl)cc1`, the IC50 came out at 1.7 µM.
